In this test the target is SARS-CoV-2 main protease (3CLpro) (Severe acute respiratory syndrome coronavirus 2 (2019-nCoV) (SARS-CoV-2), UniProt P0DTD1). The experiment in a line: Enzyme activity test. The following applies: 200 nM recombinant SARS-CoV-2 main protease, 15 μM fluorescent substrate, pH 7.3. Format: biochemical.

Consider `CC(=O)N[C@H](C(=O)N1C[C@H]2[C@@H]([C@H]1C(=O)NC(C#N)c1cncc(-c3ccn[nH]3)c1)C2(C)C)C(C)(C)C` (stereo partly drawn) [GDI-035, (1R,2S,5S)-N-((5-(1H-pyrazol-5-yl)pyridin-3-yl)(cyano)methyl)-3-((S)-2-acetylamino-3,3-dimethylbutanoyl)-6,6-dimethyl-3-azabi cyclo[3.1.0]hexane-2-carboxamide], for which the IC50 was 0.017 µM.

Regarding `CN(C)c1ccc(S(=O)(=O)N[C@H](C(=O)N2C[C@H]3[C@@H]([C@H]2C(=O)NC(C#N)c2cncc(Br)c2)C3(C)C)C(C)(C)C)cc1` (stereo partly drawn) [GDI-026, (1R,2S,5S)-N-((5-bromopyridin-3-yl) (cyano)methyl)-3-((S)-2-((4-(dimethylamino)phenyl)sulfonamido)-3,3-dimethylbutanoyl)-6,6-d imethyl-3-azabicyclo[3.1.0]hexane-2-carboxamide], the half-inhibitory concentration (IC50) turned out to be 0.017 µM.

For `CC1(C)[C@@H]2[C@@H](C(=O)NC(C#N)c3cncc(Br)c3)N(C(=O)OCc3ccccc3Cl)C[C@@H]21` (stereo partly drawn) [GDI-013, 2-chlorobenzyl((1R,2S,5S)-2-((5-bromopyridin-3-yl)(cyano)methyl)carbamoyl)-6,6-dimethyl-3-azabicyclo[3.1.0]hexane-3-carb oxylate], the IC50 stood at 0.34 µM.

On to `CN(C)c1ccc(S(=O)(=O)N[C@H](C(=O)N2C[C@H]3[C@@H]([C@H]2C(=O)NC(C#N)c2cncc4ccccc24)C3(C)C)C(C)(C)C)cc1` (stereo partly drawn) [GDI-027, (1R,2S,5S)-N-(cyano(isoquinolin-4-yl)methyl)-3-((S)-2-((4-(dimethylamino)phenyl)sulfonamido)-3,3-dimethylbutyryl)-6,6-dimethyl-3-azabicyclo[3.1.0]hexane-2-carboxamide], for which the concentration for half-maximal inhibition (IC50) amounted to 0.0076 µM.

As to `CC(=O)N[C@H](C(=O)N1C[C@H]2[C@@H]([C@H]1C(=O)NC(C#N)c1cncc(-c3cn[nH]c3)c1)C2(C)C)C(C)(C)C` (stereo partly drawn) [GDI-032, (1R,2S,5S)-N-((5-(1H-pyrazol-4-yl)pyridin-3-yl)(cyano)methyl)-3-((S)-2-acetylamino-3,3-dimethylbutanoyl)-6,6-dimethyl-3-azabi cyclo[3.1.0]hexane-2-carboxamide], the half-maximal inhibitory concentration (IC50) turned out to be 0.028 µM.

Take `CC(C)(C)[C@H](NS(=O)(=O)C(F)(F)F)C(=O)N1C[C@H]2[C@@H]([C@H]1C(=O)NC(C#N)c1cncc(Br)c1)C2(C)C` (stereo partly drawn) [GDI-025, (1R,2S,5S)-N-((5-bromopyridin-3-yl) (cyano)methyl)-3-((S)-3,3-dimethyl-2-((trifluoromethyl)sulfonamido)butanoyl)-6,6-dimethyl-3-azabicyclo[3.1.0]hexane-2-carboxamide]: the half-maximal inhibitory concentration (IC50) was found to be 0.019 µM.

On to `COC(=O)c1cncc(C(C#N)NC(=O)[C@@H]2[C@@H]3[C@H](CN2C(=O)[C@@H](NC(C)=O)C(C)(C)C)C3(C)C)c1` (stereo in doubt) [GDI-034, 5-((1R,2S,5S)-3-((S)-2-acetamido-3,3-dimethylbutyryl)-6,6-dimethyl-3-azabicyclo[3.1.0]hexane-2-carboxamido)(cyano)methyl)methyl nicotinate], for which the IC50 was 0.062 µM.

Turning to `CNC(=O)c1cncc(C(C#N)NC(=O)[C@@H]2[C@@H]3[C@H](CN2C(=O)[C@@H](NC(C)=O)C(C)(C)C)C3(C)C)c1` (stereo partly drawn) [GDI-018, (1R,2S,5S)-3-((S)-2-acetamido-3,3-dimethylbutyryl)-N(cyano(5-(methylcarbamoyl)pyridin-3-yl)methyl)-6,6-dimethyl-3-azabicycl o[3.1.0]hexane-2-carboxamide], the IC50 turned out to be 0.11 µM.

In the case of `Cc1ccc(S(=O)(=O)N[C@H](C(=O)N2C[C@H]3[C@@H]([C@H]2C(=O)NC(C#N)c2cncc(Br)c2)C3(C)C)C(C)(C)C)cc1` (stereo partly drawn) [GDI-021, (1R,2S,5S)-N-((5-bromopyridin-3-yl) (cyano)methyl)-3-((S)-3,3-dimethyl-2-((4-methylphenyl)sulfonamido)butanoyl)-6,6-dimethyl-3-azabicyclo[3.1.0]hexane-2-carboxamide], the half-maximal inhibitory concentration (IC50) was determined as 0.019 µM.

The values are drawn from patent US20240336610A1, “3CL PROTEASE SMALL-MOLECULE INHIBITOR FOR TREATING OR PREVENTING CORONAVIRUS INFECTION, AND USE THEREOF” (THE GLOBAL HEALTH DRUG DISCOVERY INSTITUTE, priority 2021, published 2024).
